From patent publication US12466839B2, “Allosteric AKT inhibitors for use in the treatment of Hereditary Hemorrhagic Telangiectasia” (VADERIS THERAPEUTICS AG, priority 2020, dated 2025)

How the values were obtained:
[1] = target: AKT3 (Homo sapiens, UniProt Q9Y243); experiment: Biochemical kinase assay
[2] = tested on: mutated forms of all three AKT isoforms containing inactive pleckstrin homology (PH) domains; experiment: Biochemical kinase assay, PH-domain mutants
[3] = target: Nav1.5 (Homo sapiens, UniProt Q14524); experiment: Cardiac ion channel profile; type: cell-based
[4] = target: Kv4.3 (Homo sapiens, UniProt Q9UK17); experiment: Cardiac ion channel profile; type: cell-based
[5] = target: Kir2.1 (Homo sapiens, UniProt P63252); experiment: Cardiac ion channel profile; type: cell-based
[6] = tested on: AKT; experiment: AKT inhibition in primary lung endothelial cells with complete loss of Eng expression (western blot); type: cell-based; conditions: Endothelial cell; lung mouse endothelial cells with complete loss of Eng expression; VEGF-A stimulation
[7] = target: T1, 5-HT2B (Homo sapiens, UniProt P41595); experiment: Millipore Drug Discovery Safety and Liability Panel; type: cell-based
T1 construct: purchased Millipore
T1 sequence (P41595 whole entry, species assumed): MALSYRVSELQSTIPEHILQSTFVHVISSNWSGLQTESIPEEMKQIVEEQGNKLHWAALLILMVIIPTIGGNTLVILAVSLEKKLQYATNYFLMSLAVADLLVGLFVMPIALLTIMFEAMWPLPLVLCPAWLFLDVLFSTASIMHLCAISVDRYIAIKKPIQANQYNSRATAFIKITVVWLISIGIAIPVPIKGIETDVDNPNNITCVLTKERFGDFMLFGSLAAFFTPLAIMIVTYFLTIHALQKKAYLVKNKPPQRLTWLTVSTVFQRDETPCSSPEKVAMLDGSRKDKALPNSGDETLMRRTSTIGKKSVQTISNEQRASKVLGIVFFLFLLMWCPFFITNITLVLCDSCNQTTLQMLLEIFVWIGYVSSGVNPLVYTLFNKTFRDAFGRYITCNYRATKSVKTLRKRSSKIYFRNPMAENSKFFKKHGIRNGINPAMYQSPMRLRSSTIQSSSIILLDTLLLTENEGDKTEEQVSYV

[8] = target: T2, A1 (Homo sapiens, UniProt P30542); experiment: as above; type: cell-based
T2 construct: purchased Millipore

[9] = target: T3, ADRA2A (Homo sapiens, UniProt P08913); experiment: as above; type: cell-based
T3 construct: purchased Millipore
T3 sequence (P08913 whole entry): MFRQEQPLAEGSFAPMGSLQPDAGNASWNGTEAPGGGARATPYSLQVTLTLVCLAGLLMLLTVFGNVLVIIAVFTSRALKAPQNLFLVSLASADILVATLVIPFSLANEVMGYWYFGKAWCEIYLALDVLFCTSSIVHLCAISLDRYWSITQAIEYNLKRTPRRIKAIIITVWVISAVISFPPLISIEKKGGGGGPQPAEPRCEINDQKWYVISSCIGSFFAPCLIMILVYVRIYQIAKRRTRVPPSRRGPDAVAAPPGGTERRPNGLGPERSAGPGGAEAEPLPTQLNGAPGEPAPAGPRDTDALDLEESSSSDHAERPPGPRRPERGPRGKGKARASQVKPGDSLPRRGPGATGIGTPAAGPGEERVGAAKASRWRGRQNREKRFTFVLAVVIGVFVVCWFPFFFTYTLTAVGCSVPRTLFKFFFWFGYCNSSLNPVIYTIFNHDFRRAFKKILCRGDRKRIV

[10] = target: T4, AT1 (Homo sapiens, UniProt P30556); experiment: as above; type: cell-based
T4 construct: purchased Millipore

[11] = target: T5, CCR1 (Homo sapiens, UniProt P32246); experiment: as above; type: cell-based
T5 construct: purchased Millipore
T5 sequence (P32246 whole entry): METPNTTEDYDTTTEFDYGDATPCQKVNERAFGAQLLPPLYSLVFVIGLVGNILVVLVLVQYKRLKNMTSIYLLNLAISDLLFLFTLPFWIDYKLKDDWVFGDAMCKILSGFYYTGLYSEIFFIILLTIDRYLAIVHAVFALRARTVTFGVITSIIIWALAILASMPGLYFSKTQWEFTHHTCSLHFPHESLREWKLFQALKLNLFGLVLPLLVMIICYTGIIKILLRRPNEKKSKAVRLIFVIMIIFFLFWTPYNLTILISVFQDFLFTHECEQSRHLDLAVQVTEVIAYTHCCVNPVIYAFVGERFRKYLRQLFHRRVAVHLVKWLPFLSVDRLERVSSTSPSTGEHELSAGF

[12] = target: T6, CCR2B (Homo sapiens, UniProt P41597); experiment: as above; type: cell-based
T6 construct: purchased Millipore

[13] = target: T7, CRF1 (Homo sapiens, UniProt P34998); experiment: as above; type: cell-based
T7 construct: purchased Millipore
T7 sequence (P34998 24-415): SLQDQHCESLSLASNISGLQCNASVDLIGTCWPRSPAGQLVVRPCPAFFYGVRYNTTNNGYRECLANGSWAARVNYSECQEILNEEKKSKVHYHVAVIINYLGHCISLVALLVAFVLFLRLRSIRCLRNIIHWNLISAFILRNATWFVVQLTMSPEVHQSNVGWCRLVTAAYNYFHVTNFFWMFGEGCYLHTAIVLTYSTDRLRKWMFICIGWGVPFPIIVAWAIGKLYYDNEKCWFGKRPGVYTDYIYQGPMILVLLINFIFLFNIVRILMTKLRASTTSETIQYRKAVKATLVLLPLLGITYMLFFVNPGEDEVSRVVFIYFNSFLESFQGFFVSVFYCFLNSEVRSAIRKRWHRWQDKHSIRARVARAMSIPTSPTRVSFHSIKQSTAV

[14] = target: T8, D2 (Homo sapiens, UniProt P14416); experiment: as above; type: cell-based
T8 construct: purchased Millipore
T8 sequence (P14416 whole entry): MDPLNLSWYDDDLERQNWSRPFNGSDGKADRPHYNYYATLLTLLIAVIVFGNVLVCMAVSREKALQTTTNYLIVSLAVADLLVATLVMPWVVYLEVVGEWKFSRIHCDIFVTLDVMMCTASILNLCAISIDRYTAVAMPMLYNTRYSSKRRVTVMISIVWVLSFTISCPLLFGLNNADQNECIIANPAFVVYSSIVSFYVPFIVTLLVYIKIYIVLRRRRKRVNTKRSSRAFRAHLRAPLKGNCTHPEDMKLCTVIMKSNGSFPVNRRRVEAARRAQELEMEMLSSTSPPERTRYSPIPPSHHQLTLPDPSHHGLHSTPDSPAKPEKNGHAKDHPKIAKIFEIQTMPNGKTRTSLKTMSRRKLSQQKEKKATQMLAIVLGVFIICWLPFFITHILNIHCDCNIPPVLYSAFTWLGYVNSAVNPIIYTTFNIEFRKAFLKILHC

[15] = target: T9, GnRH (Homo sapiens, UniProt P30968); experiment: as above; type: cell-based
T9 construct: purchased Millipore
T9 sequence (P30968 whole entry): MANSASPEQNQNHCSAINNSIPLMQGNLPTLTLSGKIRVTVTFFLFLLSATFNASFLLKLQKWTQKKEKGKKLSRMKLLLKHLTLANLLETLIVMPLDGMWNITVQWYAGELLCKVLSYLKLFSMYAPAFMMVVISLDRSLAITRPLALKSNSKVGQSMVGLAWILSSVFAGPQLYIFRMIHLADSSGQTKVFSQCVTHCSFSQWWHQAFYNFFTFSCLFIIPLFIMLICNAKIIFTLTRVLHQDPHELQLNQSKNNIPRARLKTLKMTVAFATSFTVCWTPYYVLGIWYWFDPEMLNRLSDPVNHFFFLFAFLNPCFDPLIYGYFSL

[16] = target: T10, GPR109A (Homo sapiens, UniProt Q8TDS4); experiment: as above; type: cell-based
T10 construct: purchased Millipore
T10 sequence (Q8TDS4 whole entry, species assumed): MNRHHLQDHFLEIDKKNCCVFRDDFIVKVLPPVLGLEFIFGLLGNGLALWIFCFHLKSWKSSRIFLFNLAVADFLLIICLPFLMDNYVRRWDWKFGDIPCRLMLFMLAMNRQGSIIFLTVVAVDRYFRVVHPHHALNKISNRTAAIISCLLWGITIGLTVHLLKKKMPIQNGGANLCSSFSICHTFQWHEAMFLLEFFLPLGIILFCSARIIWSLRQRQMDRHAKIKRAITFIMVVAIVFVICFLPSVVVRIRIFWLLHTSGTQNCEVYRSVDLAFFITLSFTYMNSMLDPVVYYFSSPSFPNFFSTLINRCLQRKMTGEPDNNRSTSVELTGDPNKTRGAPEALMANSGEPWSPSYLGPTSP

[17] = target: T11, M3 (Homo sapiens, UniProt P20309); experiment: as above; type: cell-based
T11 construct: purchased Millipore
T11 sequence (P20309 whole entry): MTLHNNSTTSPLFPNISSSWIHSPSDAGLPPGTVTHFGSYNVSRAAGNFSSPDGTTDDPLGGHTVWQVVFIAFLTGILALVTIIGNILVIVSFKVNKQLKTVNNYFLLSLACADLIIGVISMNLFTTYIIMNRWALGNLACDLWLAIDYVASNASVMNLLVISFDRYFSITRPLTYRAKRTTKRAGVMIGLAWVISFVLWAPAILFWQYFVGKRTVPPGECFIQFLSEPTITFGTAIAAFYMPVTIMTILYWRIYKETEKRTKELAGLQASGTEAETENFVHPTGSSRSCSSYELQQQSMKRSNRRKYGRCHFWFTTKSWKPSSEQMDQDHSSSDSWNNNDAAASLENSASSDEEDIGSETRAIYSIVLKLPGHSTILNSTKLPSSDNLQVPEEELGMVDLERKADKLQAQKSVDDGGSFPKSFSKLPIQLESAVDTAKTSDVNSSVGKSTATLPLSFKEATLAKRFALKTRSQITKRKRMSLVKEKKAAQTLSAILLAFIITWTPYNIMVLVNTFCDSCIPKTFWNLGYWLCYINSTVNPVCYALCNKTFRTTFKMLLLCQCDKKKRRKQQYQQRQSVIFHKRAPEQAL

[18] = target: T12, NMU1 (Homo sapiens, UniProt Q9HB89); experiment: as above; type: cell-based
T12 construct: Millipore
T12 sequence (Q9HB89 whole entry): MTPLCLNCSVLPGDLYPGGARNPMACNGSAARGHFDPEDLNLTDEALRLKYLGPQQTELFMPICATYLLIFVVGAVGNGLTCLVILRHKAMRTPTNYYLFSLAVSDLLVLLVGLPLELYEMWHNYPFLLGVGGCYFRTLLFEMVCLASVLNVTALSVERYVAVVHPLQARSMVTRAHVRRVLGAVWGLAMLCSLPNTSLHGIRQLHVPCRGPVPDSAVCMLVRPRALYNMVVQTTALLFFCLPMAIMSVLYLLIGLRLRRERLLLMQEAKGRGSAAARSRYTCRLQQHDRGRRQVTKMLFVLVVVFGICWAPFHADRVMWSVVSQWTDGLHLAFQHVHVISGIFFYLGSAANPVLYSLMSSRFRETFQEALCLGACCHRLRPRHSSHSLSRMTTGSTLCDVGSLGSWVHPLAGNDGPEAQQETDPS

[19] = target: T13, TP (Homo sapiens, UniProt P21731); experiment: as above; type: cell-based
T13 construct: Millipore
T13 sequence (P21731 whole entry): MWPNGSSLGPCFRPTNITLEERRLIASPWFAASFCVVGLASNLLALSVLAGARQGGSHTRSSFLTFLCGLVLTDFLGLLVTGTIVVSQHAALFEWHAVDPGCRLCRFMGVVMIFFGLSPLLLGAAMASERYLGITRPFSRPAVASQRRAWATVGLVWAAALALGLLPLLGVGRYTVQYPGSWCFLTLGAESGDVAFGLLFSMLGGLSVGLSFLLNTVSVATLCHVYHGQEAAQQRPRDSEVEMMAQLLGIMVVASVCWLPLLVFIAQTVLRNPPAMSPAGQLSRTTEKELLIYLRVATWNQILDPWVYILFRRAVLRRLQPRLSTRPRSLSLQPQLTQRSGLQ

[20] = read-out: ANTAGONIST mean % inhibition

Sequence of AKT3 (Q9Y243 whole entry, canonical isoform): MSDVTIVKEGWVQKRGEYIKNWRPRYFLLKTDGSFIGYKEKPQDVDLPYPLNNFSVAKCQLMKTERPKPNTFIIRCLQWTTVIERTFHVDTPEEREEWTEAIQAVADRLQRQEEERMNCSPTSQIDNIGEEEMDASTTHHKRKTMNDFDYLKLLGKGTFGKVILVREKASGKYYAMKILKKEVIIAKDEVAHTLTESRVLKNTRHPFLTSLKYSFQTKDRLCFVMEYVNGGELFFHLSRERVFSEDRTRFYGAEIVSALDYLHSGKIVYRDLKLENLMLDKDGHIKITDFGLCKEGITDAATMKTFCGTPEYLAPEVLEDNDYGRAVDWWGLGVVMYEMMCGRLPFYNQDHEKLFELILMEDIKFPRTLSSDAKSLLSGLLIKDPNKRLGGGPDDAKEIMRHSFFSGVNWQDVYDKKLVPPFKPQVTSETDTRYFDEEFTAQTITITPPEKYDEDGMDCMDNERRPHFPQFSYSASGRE

CCN1C(=O)COc2nc(-c3ccc(C4(N)CC(O)C4)cc3)c(-c3ccccc3)cc21.O=C(O)C(O)C(O)C(=O)O [VAD044, 6-(4-(1-amino-3-hydroxycyclobutyl)phenyl)-1-ethyl-7-phenyl-1H-pyrido[2,3-b][1,4]oxazin-2(3H)-one L-tartrate]
IC50 [1]: > 0.5 µM
EC50 ([1]; read-out: EC50 value for the AKT3 isoform): > 0.5 µM
inhibition of mutated AKT forms [2]: not inhibited
inhibition at 10 µM [3]: < 25%
inhibition at 10 µM [4]: < 25%
inhibition at 10 µM [5]: < 25%
IC50 [6]: 0.093 µM
activation at 10 µM ([7]; read-out: AGONIST mean % increase in activity): 3.7%
inhibition at 10 µM [7, 20]: 7.6%
activation at 10 µM ([8]; A1, 10 μM, read-out: AGONIST mean % increase in activity): 0%
inhibition at 10 µM [8, 20]: 7.7%
activation at 10 µM ([9]; ADRA2A, 10 μM, read-out: AGONIST mean % increase in activity): -0.2%
inhibition at 10 µM [9, 20]: 11.8%
activation at 10 µM ([10]; AT1, 10 μM, read-out: AGONIST mean % increase in activity): -0.1%
inhibition at 10 µM [10, 20]: 5.4%
activation at 10 µM ([11]; CCR1, 10 μM, read-out: AGONIST mean % increase in activity): 0.2%
inhibition at 10 µM [11, 20]: 9.5%
activation at 10 µM ([12]; CCR2B, 10 μM, read-out: AGONIST mean % increase in activity): -0.1%
inhibition at 10 µM [12, 20]: 9.1%
activation at 10 µM ([13]; CRF1, 10 μM, read-out: AGONIST mean % increase in activity): 0%
inhibition at 10 µM [13, 20]: 2.3%
activation at 10 µM ([14]; D2, 10 μM, read-out: AGONIST mean % increase in activity): -1.1%
inhibition at 10 µM [14, 20]: -0.2%
activation at 10 µM ([15]; GnRH, 10 μM, read-out: AGONIST mean % increase in activity): -0.6%
inhibition at 10 µM [15, 20]: 4%
activation at 10 µM ([16]; GPR109A, 10 μM, read-out: AGONIST mean % increase in activity): -0.7%
inhibition at 10 µM [16, 20]: 3.1%
activation at 10 µM ([17]; M3, 10 μM, read-out: AGONIST mean % increase in activity): -0.5%
inhibition at 10 µM [17, 20]: 5.3%
activation at 10 µM ([18]; NMU1, 10 μM, read-out: AGONIST mean % increase in activity): -3.1%
inhibition at 10 µM [18, 20]: 5.5%
activation at 10 µM ([19]; TP, 10 μM, read-out: AGONIST mean % increase in activity): -0.5%
inhibition at 10 µM [19, 20]: 0%
